Publication PMC8952364, “Polyphenols as Inhibitors of Antibiotic Resistant Bacteria—Mechanisms Underlying Rutin Interference with Bacterial Virulence” (Pharmaceuticals, 2022)
In brackets after ≈: the same amount, converted by molar mass. Where two headings read alike, the source gives them in different places.

How the values were obtained:
[1] = tested on: Methicillin resistant S. aureus IBRS MRSA 011; test: Antimicrobial microdilution assay (MIC/MBC); assay type: cell-based, Staphylococcus aureus; conditions: for MBC: subcultivation, 24 h at 37 °C, read-out: MBC
Protocol: (§1) The bacterial suspension (0.5 Mc Farland) was prepared, and twenty-fold dilutions of these suspensions were mixed in a 1:10 ratio with the corresponding polyphenol dilution (0.0039–1 mg/mL). Microtiter plates were incubated at 37 °C for 24 h. The lowest concentrations without visible growth (under a binocular microscope) were defined as MICs. The bactericidal concentrations (MBCs) were determined by serial subcultivation of 2 μL of the well’s content and further incubation for 24 h at 37 °C. Streptomycin (SigmaAldrich, Darmstadt, Germany) was used as a positive control. The polyphenols were obtained from Extrasynthese, Rhone, France (rutin, isoquercitrin) and SigmaAldrich, Germany (hesperetin, hesperidin, naringenin, naringin, taxifolin, morin, chlorogenic acid, ferulic acid, p-coumaric acid, and gallic acid). The stock compounds were prepared in ethanol (30%), and adequate ethanol concentrations were used as the negative control in the assays. Experiments were done in triplicate.

P. aeruginosa IBRS P001 = test: Antimicrobial microdilution assay (MIC/MBC); assay type: cell-based, Pseudomonas aeruginosa; conditions: Pseudomonas aeruginosa, IBRSP001; for MIC: 37 °C, 24 h, read-out: MIC; for MBC: subcultivation, 24 h at 37 °C, read-out: MBC
Protocol: as §1

P. aeruginosa MMA83 = test: Antimicrobial microdilution assay (MIC/MBC); assay type: cell-based, Pseudomonas aeruginosa; conditions: Pseudomonas aeruginosa, MMA83; for MIC: 37 °C, 24 h, read-out: MIC; for MBC: subcultivation, 24 h at 37 °C, read-out: MBC
Protocol: as §1

E. coli IBRS E003 = test: Antimicrobial microdilution assay (MIC/MBC); assay type: cell-based, Escherichia coli; conditions: Escherichia coli, IBRSE003; for MIC: 37 °C, 24 h, read-out: MIC; for MBC: subcultivation, 24 h at 37 °C, read-out: MBC
Protocol: as §1

E. coli IMD989 = test: Antimicrobial microdilution assay (MIC/MBC); assay type: cell-based, Escherichia coli; conditions: Escherichia coli, IMD989; for MIC: 37 °C, 24 h, read-out: MIC; for MBC: subcultivation, 24 h at 37 °C, read-out: MBC
Protocol: as §1

A. baumannii 6077/12 = test: Antimicrobial microdilution assay (MIC/MBC); assay type: cell-based, Acinetobacter baumannii; conditions: Acinetobacter baumannii, 6077/12; for MIC: 37 °C, 24 h, read-out: MIC; for MBC: subcultivation, 24 h at 37 °C, read-out: MBC
Protocol: as §1

A. baumannii S2/2 = test: Antimicrobial microdilution assay (MIC/MBC); assay type: cell-based, Acinetobacter baumannii; conditions: Acinetobacter baumannii, S2/2; for MIC: 37 °C, 24 h, read-out: MIC; for MBC: subcultivation, 24 h at 37 °C, read-out: MBC
Protocol: as §1

K. pneumoniae IT977 = test: Antimicrobial microdilution assay (MIC/MBC); assay type: cell-based, Klebsiella pneumoniae; conditions: Klebsiella pneumoniae, IT977; for MIC: 37 °C, 24 h, read-out: MIC; for MBC: subcultivation, 24 h at 37 °C, read-out: MBC
Protocol: as §1

K. pneumoniae Ni9 = test: Antimicrobial microdilution assay (MIC/MBC); assay type: cell-based, Klebsiella pneumoniae; conditions: Klebsiella pneumoniae, NI9; for MIC: 37 °C, 24 h, read-out: MIC; for MBC: subcultivation, 24 h at 37 °C, read-out: MBC
Protocol: as §1

A. xylosoxidans 37F = test: Antimicrobial microdilution assay (MIC/MBC); assay type: cell-based, Achromobacter xylosoxidans; conditions: Achromobacter xylosoxidans, 37F; for MIC: 37 °C, 24 h, read-out: MIC; for MBC: subcultivation, 24 h at 37 °C, read-out: MBC
Protocol: as §1

S. infantis 1371/1 = test: Antimicrobial microdilution assay (MIC/MBC); assay type: cell-based, Salmonella Infantis; conditions: Salmonella enterica, 1371/1; for MIC: 37 °C, 24 h, read-out: MIC; for MBC: subcultivation, 24 h at 37 °C, read-out: MBC
Protocol: as §1

[2] = tested on: P. aeruginosa IBRS P001 biofilm; test: Crystal violet antibiofilm assay (biofilm formation); assay type: cell-based, Pseudomonas aeruginosa; conditions: MIC and sub-MIC, 24 h, crystal violet, Figure 1
Protocol: After incubation, each well was washed twice with sterile PBS (phosphate-buffered saline, pH 7.4) and fixed with methanol for 10 min. After removal of methanol the plate was air-dried. The biofilm was stained with 0.1% crystal violet (Bio-Merieux, Marcy l’Etoile, France) for 30 min. The plate was washed with water, air dried, and the stain was dissolved with 200 μL of 96% ethanol (Zorka, Sabac, Serbia). The absorbance was read at 620 nm on a Multiskan™ FC microplate photometer (Thermo Scientific™, Waltham, MA, USA). The results are presented as biofilm forming capacity (%) compared to control.

HaCaT cells = test: Cytotoxicity in HaCaT cell line (crystal violet assay); assay type: cell-based, human; conditions: Homo sapiens, HaCaT, read-out: IC50 (compound concentration that inhibited 50% of the cell growth)
Protocol: For determination of the polyphenols’ cytotoxic effect, a crystal violet assay was used, with modifications. The cytotoxic effect of polyphenols was analyzed on spontaneously immortalized human skin keratinocytes (HaCaT, AddexBio No. T0020001, San Diego, CA, USA) cell lines. […] Cells (1 × 10^4 cells/well) were seeded in a 96-well plate (Sarstedt, Nümbrecht, Germany) 24 h before treatment. […] Cells were incubated with the compounds for 24 h. […] After crystal violet was removed, the plates were washed in a stream of tap water and left to air-dry at room temperature for 24 h. The absorbance was measured in a microplate reader (Multiskan™ FC Microplate Photometer, Thermo Scientific™) at 590 nm. The results were expressed as IC50 value in μg/mL. The criterion used to categorize the cytotoxic activity polyphenols was as follows: […] All analyses were performed in triplicate; each replicate was also quantified three times. Data were expressed as mean standard deviation, where applicable.

[3] = tested on: eleven antibiotic resistant strains of bacteria; test: Antimicrobial assay, summary over the examined strains; assay type: cell-based; conditions: antibiotic resistant strains of Table 1; read-out: lowest MIC among the examined strains
Protocol: as §1

[4] = tested on: S. aureus Newman and S. aureus Newman Δcoa; parameters: method as in PMID 32130467; conditions: cited from earlier work
[5] = tested on: S. aureus clinical isolate; parameters: method as in doi:10.5937/leksir2040057K; conditions: cited from earlier work
S. aureus ATCC 11632 = tested on: S. aureus ATCC 11632; parameters: method as in doi:10.5937/leksir2040057K; conditions: cited from earlier work
MRSA T144 = tested on: MRSA T144; parameters: method as in PMID 31385700; conditions: cited from earlier work
S. aureus USA300 = tested on: S. aureus USA300; parameters: method as in PMID 34295320; conditions: methicillin resistant strain; cited from earlier work
[6] = Staphylococcus aureus, MRSA, 37 °C, 24 h, read-out: MIC

O=c1c(O[C@@H]2O[C@H](CO)[C@@H](O)[C@H](O)[C@H]2O)c(-c2ccc(O)c(O)c2)oc2cc(O)cc(O)c12 [Isoquercitrin, isoquercitrin]
MIC [1, 6]: 500 µg/mL (≈ 1080 µM)
MBC ([1]; Staphylococcus aureus, MRSA): 1000 µg/mL (≈ 2150 µM)
MIC (P. aeruginosa IBRS P001): 250 µg/mL (≈ 538 µM)
MBC (P. aeruginosa IBRS P001): 500 µg/mL (≈ 1080 µM)
MIC (P. aeruginosa MMA83): 250 µg/mL (≈ 538 µM)
MBC (P. aeruginosa MMA83): 250 µg/mL (≈ 538 µM)
MIC (E. coli IBRS E003): > 1000 µg/mL
MBC (E. coli IBRS E003): > 1000 µg/mL
MIC (E. coli IMD989): 1000 µg/mL (≈ 2150 µM)
MBC (E. coli IMD989): 1000 µg/mL (≈ 2150 µM)
MIC (A. baumannii 6077/12): 250 µg/mL (≈ 538 µM)
MBC (A. baumannii 6077/12): 500 µg/mL (≈ 1080 µM)
MIC (A. baumannii S2/2): 500 µg/mL (≈ 1080 µM)
MBC (A. baumannii S2/2): 500 µg/mL (≈ 1080 µM)
MIC (K. pneumoniae IT977): 1000 µg/mL (≈ 2150 µM)
MBC (K. pneumoniae IT977): 1000 µg/mL (≈ 2150 µM)
MIC (K. pneumoniae Ni9): 500 µg/mL (≈ 1080 µM)
MBC (K. pneumoniae Ni9): 1000 µg/mL (≈ 2150 µM)
MIC (A. xylosoxidans 37F): 500 µg/mL (≈ 1080 µM)
MBC (A. xylosoxidans 37F): 500 µg/mL (≈ 1080 µM)
MIC (S. infantis 1371/1): 1000 µg/mL (≈ 2150 µM)
MBC (S. infantis 1371/1): 1000 µg/mL (≈ 2150 µM)
reduction of biofilm formation (biomass), in words [2]: promising (***, p ≤ 0.001) potential to reduce the biomass
IC50 (HaCaT cells; 24 h): > 1000 µg/mL
MIC [3]: 250 µg/mL (≈ 538 µM)
MIC (no inhibitory activity up to) [4]: > 1024 µg/mL
MIC [5]: 0.2 mg/mL (≈ 431 µM)
MIC (S. aureus ATCC 11632): 0.1 mg/mL (≈ 215 µM)

O=c1c(O)c(-c2ccc(O)cc2O)oc2cc(O)cc(O)c12 [Morin, morin]
MIC [1, 6]: 120 µg/mL (≈ 397 µM)
MIC ([1]; Staphylococcus aureus, MRSA, restated in the discussion, read-out: MIC): 125 µg/mL (≈ 414 µM)
MBC ([1]; Staphylococcus aureus, MRSA): 250 µg/mL (≈ 827 µM)
MIC (P. aeruginosa IBRS P001): 120 µg/mL (≈ 397 µM)
MBC (P. aeruginosa IBRS P001): 250 µg/mL (≈ 827 µM)
MIC (P. aeruginosa MMA83): 1000 µg/mL (≈ 3310 µM)
MBC (P. aeruginosa MMA83): 1000 µg/mL (≈ 3310 µM)
MIC (E. coli IBRS E003): 250 µg/mL (≈ 827 µM)
MBC (E. coli IBRS E003): 500 µg/mL (≈ 1650 µM)
MIC (E. coli IMD989): > 1000 µg/mL
MBC (E. coli IMD989): > 1000 µg/mL
MIC (A. baumannii 6077/12): 500 µg/mL (≈ 1650 µM)
MBC (A. baumannii 6077/12): 500 µg/mL (≈ 1650 µM)
MIC (A. baumannii S2/2): 500 µg/mL (≈ 1650 µM)
MBC (A. baumannii S2/2): 500 µg/mL (≈ 1650 µM)
MIC (K. pneumoniae IT977): > 1000 µg/mL
MBC (K. pneumoniae IT977): > 1000 µg/mL
MIC (K. pneumoniae Ni9): 500 µg/mL (≈ 1650 µM)
MBC (K. pneumoniae Ni9): 1000 µg/mL (≈ 3310 µM)
MIC (A. xylosoxidans 37F): 500 µg/mL (≈ 1650 µM)
MBC (A. xylosoxidans 37F): 1000 µg/mL (≈ 3310 µM)
MIC (S. infantis 1371/1): > 1000 µg/mL
MBC (S. infantis 1371/1): > 1000 µg/mL
IC50 (HaCaT cells; 24 h treatment, crystal violet): 347 ± 16 µg/mL (≈ 1150 µM)
MIC (MRSA T144): 32 µg/mL (≈ 106 µM)

O=C1c2c(O)cc(O)cc2OC(c2ccc(O)c(O)c2)C1O (centres unmarked) [Taxifolin, taxifolin]
MIC ([1]; 37 °C, 24 h): 250 µg/mL (≈ 822 µM)
MIC [1, 6]: 250 µg/mL (≈ 822 µM)
MBC ([1]; Staphylococcus aureus, MRSA): 500 µg/mL (≈ 1640 µM)
MIC (P. aeruginosa IBRS P001): 250 µg/mL (≈ 822 µM)
MBC (P. aeruginosa IBRS P001): 500 µg/mL (≈ 1640 µM)
MIC (P. aeruginosa MMA83): 1000 µg/mL (≈ 3290 µM)
MBC (P. aeruginosa MMA83): > 1000 µg/mL
MIC (E. coli IBRS E003): 500 µg/mL (≈ 1640 µM)
MBC (E. coli IBRS E003): 1000 µg/mL (≈ 3290 µM)
MIC (E. coli IMD989): 1000 µg/mL (≈ 3290 µM)
MBC (E. coli IMD989): 1000 µg/mL (≈ 3290 µM)
MIC (A. baumannii 6077/12): 500 µg/mL (≈ 1640 µM)
MBC (A. baumannii 6077/12): 1000 µg/mL (≈ 3290 µM)
MIC (A. baumannii S2/2): 500 µg/mL (≈ 1640 µM)
MBC (A. baumannii S2/2): 500 µg/mL (≈ 1640 µM)
MIC (K. pneumoniae IT977): > 1000 µg/mL
MBC (K. pneumoniae IT977): > 1000 µg/mL
MIC (K. pneumoniae Ni9): 1000 µg/mL (≈ 3290 µM)
MBC (K. pneumoniae Ni9): 1000 µg/mL (≈ 3290 µM)
MIC (A. xylosoxidans 37F): 1000 µg/mL (≈ 3290 µM)
MBC (A. xylosoxidans 37F): 1000 µg/mL (≈ 3290 µM)
MIC (S. infantis 1371/1): > 1000 µg/mL
MBC (S. infantis 1371/1): > 1000 µg/mL
reduction of biofilm formation (biomass), in words [2]: not significantly altered
IC50 (HaCaT cells; 24 h treatment, crystal violet): 495 ± 47 µg/mL (≈ 1630 µM)
MIC [3]: 250 µg/mL (≈ 822 µM)
MIC (S. aureus USA300): 512 µg/mL (≈ 1680 µM)
